One assay deals with Butyrylcholinesterase (Equus caballus, UniProt Q9N1N9).
For the next assay, the target named is Acetylcholinesterase (Electrophorus electricus, UniProt O42275).

By IC50 is commonly meant the concentration that inhibits the measured activity by half. A higher IC50 goes with a need for much substance.

Butyrylcholinesterase, sequence (Q9N1N9 whole entry): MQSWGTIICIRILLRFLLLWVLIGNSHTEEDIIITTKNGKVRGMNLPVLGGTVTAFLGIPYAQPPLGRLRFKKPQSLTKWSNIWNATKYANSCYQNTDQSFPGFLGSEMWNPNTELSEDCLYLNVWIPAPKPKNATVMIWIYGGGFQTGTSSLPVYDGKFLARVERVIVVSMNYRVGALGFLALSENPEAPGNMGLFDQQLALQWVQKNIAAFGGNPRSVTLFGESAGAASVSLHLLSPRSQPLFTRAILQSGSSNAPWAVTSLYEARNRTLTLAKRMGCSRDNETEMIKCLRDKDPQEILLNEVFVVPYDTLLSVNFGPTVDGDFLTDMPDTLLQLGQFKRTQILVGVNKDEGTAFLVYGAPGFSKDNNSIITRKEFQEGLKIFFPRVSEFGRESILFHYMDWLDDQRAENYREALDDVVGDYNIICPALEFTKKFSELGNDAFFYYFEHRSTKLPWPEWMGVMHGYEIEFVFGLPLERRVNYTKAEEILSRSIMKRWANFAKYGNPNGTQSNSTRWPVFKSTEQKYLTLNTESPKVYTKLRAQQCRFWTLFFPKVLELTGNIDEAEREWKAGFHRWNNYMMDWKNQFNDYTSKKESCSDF
Acetylcholinesterase, sequence (O42275 whole entry): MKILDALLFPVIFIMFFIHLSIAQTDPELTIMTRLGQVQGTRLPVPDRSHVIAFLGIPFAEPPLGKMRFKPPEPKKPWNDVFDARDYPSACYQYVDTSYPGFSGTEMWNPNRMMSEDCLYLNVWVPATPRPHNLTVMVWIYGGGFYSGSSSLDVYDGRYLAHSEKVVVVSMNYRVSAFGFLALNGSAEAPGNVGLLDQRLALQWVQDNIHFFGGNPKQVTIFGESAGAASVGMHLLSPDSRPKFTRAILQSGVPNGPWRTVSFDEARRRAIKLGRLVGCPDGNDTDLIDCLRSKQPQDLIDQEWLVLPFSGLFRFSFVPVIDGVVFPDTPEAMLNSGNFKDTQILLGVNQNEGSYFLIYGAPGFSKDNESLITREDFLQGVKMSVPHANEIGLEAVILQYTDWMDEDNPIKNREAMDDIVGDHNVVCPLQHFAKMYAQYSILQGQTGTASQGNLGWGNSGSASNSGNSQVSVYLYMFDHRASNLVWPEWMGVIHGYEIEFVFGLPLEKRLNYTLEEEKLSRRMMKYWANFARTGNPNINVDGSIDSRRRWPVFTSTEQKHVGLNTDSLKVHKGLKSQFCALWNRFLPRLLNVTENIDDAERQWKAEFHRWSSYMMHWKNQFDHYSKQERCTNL
Description for Acetylcholinesterase: Inhibition of electric eel AchE by Ellman's assay
Description for Butyrylcholinesterase: Inhibition of equine BChE by Ellman's assay

Turning to `COc1cc(/C=C/C(=O)NCCCCNc2c3c(nc4ccccc24)CCCC3)ccc1O`, the IC50 against Butyrylcholinesterase came to 5.9 nM; on Acetylcholinesterase it was 7.6 nM.
As to `COc1cc(/C=C/C(=O)NCCCNc2c3c(nc4ccccc24)CCCC3)ccc1O`, the concentration for half-maximal inhibition (IC50) is 27 nM against Butyrylcholinesterase and 33 nM at Acetylcholinesterase.
On the same counts, the results for `COc1cc(/C=C/C(=O)NCCCCCCCCNc2c3c(nc4ccccc24)CCCC3)ccc1O` are 12.7 nM and 9.6 nM.
The matching figures for `COc1cc(/C=C/C(=O)NCCCCCNc2c3c(nc4ccccc24)CCCC3)ccc1O`: 6.7 nM and 4.4 nM.
On to `NCCCNc1c2c(nc3ccccc13)CCCC2`, for which the half-maximal inhibitory concentration (IC50) against Butyrylcholinesterase came to 5.5 nM; against Acetylcholinesterase it was 69.5 nM.
The matching figures for `NCCCCNc1c2c(nc3ccccc13)CCCC2`: 7.1 nM and 23.6 nM.
`NCCCCCNc1c2c(nc3ccccc13)CCCC2`: the half-maximal inhibitory concentration (IC50) against Butyrylcholinesterase was 5 nM; against Acetylcholinesterase, 3.2 nM.
The matching figures for `NCCCCCCCCNc1c2c(nc3ccccc13)CCCC2`: 1.4 nM and 3.5 nM.
The matching figures for `COc1cc(/C=C/C(=O)NCCNc2c3c(nc4ccccc24)CCCC3)ccc1O`: 34.1 nM and 38.6 nM.
The matching figures for `NCCNc1c2c(nc3ccccc13)CCCC2`: 12.3 nM and 54.8 nM.

For the origin of these results see ChEMBL document CHEMBL1145609, “Design and synthesis of tacrine-ferulic acid hybrids as multi-potent anti-Alzheimer drug candidates” (Bioorg Med Chem Lett, 2008).
